Structures can show the parent of a compound that is named as a salt. Where two headings read alike, the source gives them in different places. Values belong to the molecule of their own block, whether it stands above or below them.
Columns and labels:
in vitro = in vitro ADME, Human; conditions: for remaining at 0.5 h, 1 µM: human, pH 6.4, liver microsomes 0.5 mg/mL, 30 minutes at 37°C
[1] = Metabolic stability in liver microsomes; type: in vitro ADME; conditions: mouse, pH 6.4, 30 minutes at 37°C
[2] = Metabolic stability in liver microsomes; type: in vitro ADME; conditions: rat, pH 6.4, 30 minutes at 37°C
Procedure: Then, an NADPH regeneration system solution was added thereto and the mixed solution was incubated at 37°C for 30 minutes. […]

NO (nitric oxide) = NO (nitric oxide) inhibitory activity in LPS-treated BV-2 microglial cells; type: cell-based, mouse; conditions: for activity at 0.1 µM / activity at 1 µM / activity at 10 µM: Mus musculus; for activity at 0.1 µM: read-out: Amount of NO (% of control) 0.1 µM; for activity at 1 µM: read-out: Amount of NO (% of control) 1 µM; for activity at 10 µM: read-out: Amount of NO (% of control) 10 µM
Nrf2 = Nrf2 functional cell-based assay (DiscoveRx); conditions: U2OS cells, incubated for 6 hours, luminescence; read-out: Nrf2 activation EC50
U2OS cells = conditions: known from the literature; cited from earlier work
[3] = background statement; cited from earlier work
[4] = not told; cited from earlier work
[5] = 10 µM compound, BV-2 cells, LPS 1 µg/ml, 24 hours

remaining at 0.5 h, 1 µM (in vitro): 66%
remaining at 0.5 h, 1 µM [1]: 4.5%
Molecule: O=S(=O)(/C=C/c1ncccc1Cl)c1ccccc1Cl

remaining at 0.5 h, 1 µM (in vitro): 72%
remaining at 0.5 h, 1 µM [1]: 19%
remaining at 0.5 h, 1 µM [2]: 23%
Molecule: O=S(=O)(/C=C/c1ncccc1Cl)c1ccccc1F

amount of drug remaining after incubation with microsomes (in words) (in vitro; 30 minutes): remained at a high concentration
remaining at 0.5 h, 1 µM (in vitro): 76%
remaining at 0.5 h, 1 µM [1]: 59%
Molecule: COc1ccc(S(=N)(=O)/C=C/c2ccccn2)cc1 (stereo not drawn) [Compound 1-2, (E)-imino(4-methoxyphenyl)(2-(pyridin-2-yl)vinyl)-λ^6-sulfanone]

Molecule: N=S(=O)(/C=C/c1ncccc1F)c1ccccc1Cl (stereo not drawn) [Compound 1-3, (E)-(2-chlorophenyl)(2-(3-fluoropyridin-2-yl)vinyl)(imino)-λ^6-sulfanone]
activity at 0.1 µM (NO (nitric oxide); BV-2, 24 h): 90.9%
activity at 1 µM (NO (nitric oxide); BV-2, 24 h): 51.4%
activity at 10 µM (NO (nitric oxide); BV-2, 24 h): < 3%

Molecule: COc1cccc(S(=N)(=O)/C=C/c2ncccc2F)c1 (stereo not drawn) [Compound 1-7, (E)-(2-(3-fluoropyridin-2-yl)vinyl)(imino)(3-methoxyphenyl)-λ^6-sulfanone]
activity at 10 µM (NO (nitric oxide); BV-2, 24 h): 1.48%

Molecule: N=S(=O)(/C=C/c1cccnc1)c1ccccc1Cl (stereo not drawn) [Compound 1-12, (E)-(2-chlorophenyl)(imino)(2-(pyridin-3-yl)vinyl)-λ^6-sulfanone]
activity at 10 µM (NO (nitric oxide); [5]): 24.8%

Molecule: C[Si](C)(C)N=S(=O)(/C=C/c1ccccc1Cl)c1ccncc1F (stereo not drawn) [Compound 1-46, (E)-(2-chlorostyryl)(3-fluoropyridin-4-yl)((trimethylsilyl)imino)-λ^6-sulfanone]
EC50 (Nrf2): 120 nM

Molecule: COc1ccccc1S(=O)(/C=C/c1ccccc1Cl)=NC#N (stereo not drawn) [Compound 1-57, (E)-N-((2-chlorostyryl)(2-methoxyphenyl)(oxo)-λ^6-sulfanylidene)cyanamide]
EC50 (Nrf2): 75 nM

Molecule: COC(=O)/C=C/C(=O)OC [DMF, Dimethyl fumarate]
EC50 (Nrf2): 4330 nM

Molecule: C[S+]([O-])CCCCN=C=S (stereo not drawn) [Sulforaphane, 1-isothiocyanato-4-methylsulfinylbutane]
activity at 0.1 µM (NO (nitric oxide); 0.1 µM compound, BV-2 cells, LPS 1 µg/ml, 24 hours): 107%
activity at 1 µM (NO (nitric oxide); 1 µM compound, BV-2 cells, LPS 1 µg/ml, 24 hours): 79.9%
activity at 10 µM (NO (nitric oxide); [5]): 14.9%
concentrations at which high toxicity is exhibited (U2OS cells): ≥ 5 µM
time until it disappears when administered to the body [3]: ≤ 1 h
blood-brain barrier permeability [4]: very low

EC50 (Nrf2): 3280 nM
Molecule: (E)-(2-chlorophenyl)(imino)(2-(2,4,6-trichloropyrimidin-5-yl)vinyl)-λ^6-sulfanone [Compound 1-14]
Amount of NO (% of control) 10 µM (NO (nitric oxide); [5]): < 3.00 % of control

From EP4534528A1, “NOVEL SULFANONE DERIVATIVE OR PHARMACEUTICALLY ACCEPTABLE SALT THEREOF, AND USE THEREOF” (Korea Institute of Science and Technology, priority 2022, dated 2023)
